According to ChEMBL document CHEMBL6121063, “Identification of a Potent and Selective CDK9 Degrader as a Targeted Therapeutic Option for the Treatment of Small-Cell Lung Cancer” (J Med Chem, 2025):
Values after ≈ are worked out from the molar mass of the structure shown.

Tests used:
[1] = system: NCI-H69; test: Antiproliferative activity against human NCI-H69 cells assessed as inhibition of cell growth incubated for 72 hrs by CCK8 assay; format: functional, cell-based; settings: NCI-H69, 72 h
[2] = system: NCI-H446; test: Antiproliferative activity against human NCI-H446 cells assessed as inhibition of cell growth incubated for 72 hrs by CCK8 assay; format: functional, cell-based; settings: NCI-H446, 72 h
[3] = target: Protein cereblon/Cyclin-dependent kinase 9 (Homo sapiens, UniProt P50750+Q96SW2); test: PROTAC activity at CRBN/CDK9 in human NCI-H69 cells assessed as induction of CDK9 degradation incubated for 8 hrs by Western blot analysis; format: cell-based
[4] = Metabolic stability in mouse liver microsomes assessed as parent compound remaining measured after 60 mins; format: ADME, Microsome; settings: read-out: Stability
[5] = Metabolic stability in mouse liver microsomes assessed as half-life; format: ADME, Microsome; settings: liver microsomes
[6] = Metabolic stability in mouse liver microsomes assessed as intrinsic clearance; format: ADME, Microsome; settings: liver microsomes, read-out: CLH
[7] = Metabolic stability in human liver microsomes assessed as parent compound remaining measured after 60 mins; format: ADME, Microsome; settings: read-out: Stability
[8] = Metabolic stability in human liver microsomes assessed as half-life; format: ADME, Microsome; settings: liver microsomes
[9] = Metabolic stability in human liver microsomes assessed as intrinsic clearance; format: ADME, Microsome; settings: liver microsomes, read-out: CLH
[10] = Apparent permeability across apical to basolateral side in human Caco-2 cells at 2 uM measured after 60 mins by HPLC analysis; format: ADME, cell-based
[11] = Apparent permeability across basolateral to apical side in human Caco-2 cells at 2 uM measured after 60 mins by HPLC analysis; format: ADME, cell-based
[12] = Efflux ratio of apparent permeability across basolateral to apical over apical to basolateral side in human Caco-2 cells at 2 uM measured after 60 mins by HPLC analysis; format: ADME, cell-based
[13] = Kinetic solubility of compound in FeSSIF buffer incubated for 2 hrs by LC-MS/MS analysis; format: physicochemical; settings: read-out: Kinetic_solubility
[14] = Half-life in mouse at 5 mg/kg, iv; format: ADME, organism-based; settings: in vivo
[15] = Cmax in mouse at 5 mg/kg, iv; format: ADME, organism-based; settings: in vivo
[16] = AUC (0 to 24 hrs) in mouse at 5 mg/kg, iv; format: ADME, organism-based; settings: in vivo
[17] = AUC (0 to infinity) in mouse at 5 mg/kg, iv; format: ADME, organism-based; settings: in vivo
[18] = Half-life in mouse at 25 mg/kg, po; format: ADME, organism-based; settings: in vivo
[19] = Cmax in mouse at 25 mg/kg, po; format: ADME, organism-based; settings: in vivo
[20] = AUC (0 to 24 hrs) in mouse at 25 mg/kg, po; format: ADME, organism-based; settings: in vivo
[21] = AUC (0 to infinity) in mouse at 25 mg/kg, po; format: ADME, organism-based; settings: in vivo
[22] = Oral bioavailability in mouse at 25 mg/kg; format: ADME, organism-based; settings: in vivo
[23] = Half-life in Sprague-Dawley rat at 5 mg/kg, iv measured after 12 hrs by LC-MS/MS analysis; format: ADME, organism-based; settings: in vivo
[24] = Cmax in Sprague-Dawley rat at 5 mg/kg, iv measured after 12 hrs by LC-MS/MS analysis; format: ADME, organism-based; settings: in vivo
[25] = AUC (0 to 24 hrs) in Sprague-Dawley rat at 5 mg/kg, iv measured after 12 hrs by LC-MS/MS analysis; format: ADME, organism-based; settings: in vivo
[26] = AUC (0 to infinity) in Sprague-Dawley rat at 5 mg/kg, iv measured after 12 hrs by LC-MS/MS analysis; format: ADME, organism-based; settings: in vivo
[27] = Half-life in Sprague-Dawley rat at 25 mg/kg, po measured after 12 hrs by LC-MS/MS analysis; format: ADME, organism-based; settings: in vivo
[28] = Cmax in Sprague-Dawley rat at 25 mg/kg, po measured after 12 hrs by LC-MS/MS analysis; format: ADME, organism-based; settings: in vivo
[29] = AUC (0 to 24 hrs) in Sprague-Dawley rat at 25 mg/kg, po measured after 12 hrs by LC-MS/MS analysis; format: ADME, organism-based; settings: in vivo
[30] = AUC (0 to infinity) in Sprague-Dawley rat at 25 mg/kg, po measured after 12 hrs by LC-MS/MS analysis; format: ADME, organism-based; settings: in vivo
[31] = Oral bioavailability in Sprague-Dawley rat at 25 mg/kg measured after 12 hrs by LC-MS/MS analysis; format: ADME, organism-based; settings: in vivo
[32] = system: NCI-H146; test: Antiproliferative activity against human NCI-H146 cells assessed as inhibition of cell growth incubated for 72 hrs by CCK8 assay; format: functional, cell-based; settings: NCI-H146, 72 h
[33] = system: NCI-H524; test: Antiproliferative activity against human NCI-H524 cells assessed as inhibition of cell growth incubated for 72 hrs by CCK8 assay; format: functional, cell-based; settings: NCI-H524, 72 h
[34] = system: DMS-114; test: Antiproliferative activity against human DMS-114 cells assessed as inhibition of cell growth incubated for 72 hrs by CCK8 assay; format: functional, cell-based; settings: DMS-114, 72 h
[35] = Cytotoxicity against human MCF-10A cells assessed as inhibition of cell growth incubated for 72 hrs by CCK8 assay; format: toxicity, cell-based
[36] = Cytotoxicity against human BEAS-2B cells assessed as inhibition of cell growth incubated for 72 hrs by CCK8 assay; format: toxicity, cell-based
[37] = Cytotoxicity against human L02 cells assessed as inhibition of cell growth incubated for 72 hrs by CCK8 assay; format: toxicity, cell-based
[38] = Cytotoxicity against HEK293T cells assessed as inhibition of cell growth incubated for 72 hrs by CCK8 assay; format: toxicity, cell-based, HEK-293T; settings: human
[39] = target: Voltage-gated inwardly rectifying potassium channel KCNH2 (Homo sapiens, UniProt Q12809); test: Inhibition of human ERG expressed in HEK293 cells by manual-patch clamp assay; format: toxicity, cell-based
[40] = system: Mus musculus; test: Hematotoxicity in mouse assessed as effect on WBC count at 12.5 to 25 mg/kg, po administered daily for 14 days; format: toxicity, organism-based; settings: in vivo, 336 h, dose 12.5-25 mg/kg, time 14 day
[41] = system: Mus musculus; test: Hematotoxicity in mouse assessed as effect on platelet count at 12.5 to 25 mg/kg, po administered daily for 14 days; format: toxicity, organism-based; settings: in vivo, 336 h, dose 12.5-25 mg/kg, time 14 day
[42] = Toxicity in mouse assessed as pathological changes in heart at 12.5 to 25 mg/kg, po administered daily for 14 days by H and E staining based analysis; format: organism-based; settings: in vivo, 336 h, dose 12.5-25 mg/kg, time 14 day
[43] = Toxicity in mouse assessed as pathological changes in liver at 12.5 to 25 mg/kg, po administered daily for 14 days by H and E staining based analysis; format: organism-based; settings: in vivo, 336 h, dose 12.5-25 mg/kg, time 14 day
[44] = Toxicity in mouse assessed as pathological changes in lung at 12.5 to 25 mg/kg, po administered daily for 14 days by H and E staining based analysis; format: organism-based; settings: in vivo, 336 h, dose 12.5-25 mg/kg, time 14 day
[45] = Toxicity in mouse assessed as pathological changes in spleen at 12.5 to 25 mg/kg, po administered daily for 14 days by H and E staining based analysis; format: organism-based; settings: in vivo, 336 h, dose 12.5-25 mg/kg, time 14 day
[46] = Toxicity in mouse assessed as pathological changes in kidney at 12.5 to 25 mg/kg, po administered daily for 14 days by H and E staining based analysis; format: organism-based; settings: in vivo, 336 h, dose 12.5-25 mg/kg, time 14 day
[47] = system: NCI-H446; test: Antitumor activity against human NCI-H446 cells xenografted in female NU-NU mouse model assessed as tumor growth inhibition at 12.5 mg/kg, po administered once daily for 15 days relative to control; format: functional; settings: NCI-H446, 360 h, time 15 day, read-out: TGI
[48] = system: NCI-H446; test: Antitumor activity against human NCI-H446 cells xenografted in female NU-NU mouse model assessed as tumor growth inhibition at 25 mg/kg, po administered once daily for 15 days relative to control; format: functional; settings: NCI-H446, 360 h, time 15 day, read-out: TGI
[49] = system: Mus musculus; test: Toxicity in female NU/NU mouse model xenografted with human NCI-H446 cells assessed as effect on body weight at 12.5 to 25 mg/kg, po administered once daily for 15 days; format: organism-based; settings: in vivo, 360 h, dose 12.5-25 mg/kg, time 15 day
[50] = system: Mus musculus; test: Toxicity in female NU/NU mouse model xenografted with human NCI-H446 cells expressing luciferase-GFP assessed as effect on body weight at 12.5 to 25 mg/kg, po administered for 19 days; format: organism-based; settings: in vivo, 456 h, dose 12.5-25 mg/kg, time 19 day

Sequence of Protein cereblon/Cyclin-dependent kinase 9 (P50750 whole entry): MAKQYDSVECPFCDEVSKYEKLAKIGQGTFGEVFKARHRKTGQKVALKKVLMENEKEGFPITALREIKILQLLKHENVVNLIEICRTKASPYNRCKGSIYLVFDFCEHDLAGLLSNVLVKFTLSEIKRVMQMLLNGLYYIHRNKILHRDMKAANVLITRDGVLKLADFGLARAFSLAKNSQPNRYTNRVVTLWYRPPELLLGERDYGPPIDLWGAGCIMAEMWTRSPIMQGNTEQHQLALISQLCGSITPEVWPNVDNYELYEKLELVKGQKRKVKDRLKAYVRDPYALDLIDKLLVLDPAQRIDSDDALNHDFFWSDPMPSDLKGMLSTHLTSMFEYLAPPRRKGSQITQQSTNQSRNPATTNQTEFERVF
Sequence of Protein cereblon/Cyclin-dependent kinase 9 (Q96SW2 whole entry): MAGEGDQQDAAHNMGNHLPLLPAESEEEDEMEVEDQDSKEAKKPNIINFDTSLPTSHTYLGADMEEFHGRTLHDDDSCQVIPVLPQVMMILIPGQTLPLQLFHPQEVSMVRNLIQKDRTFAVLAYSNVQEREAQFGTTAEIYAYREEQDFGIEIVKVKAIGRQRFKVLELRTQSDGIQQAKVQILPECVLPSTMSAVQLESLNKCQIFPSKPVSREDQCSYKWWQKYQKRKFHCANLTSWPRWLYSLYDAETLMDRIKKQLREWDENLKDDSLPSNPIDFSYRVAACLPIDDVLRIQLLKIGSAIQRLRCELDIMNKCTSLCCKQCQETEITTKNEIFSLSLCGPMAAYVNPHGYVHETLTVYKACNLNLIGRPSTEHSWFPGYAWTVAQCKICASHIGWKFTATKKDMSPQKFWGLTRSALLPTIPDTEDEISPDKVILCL
Sequence of Voltage-gated inwardly rectifying potassium channel KCNH2 (Q12809 whole entry): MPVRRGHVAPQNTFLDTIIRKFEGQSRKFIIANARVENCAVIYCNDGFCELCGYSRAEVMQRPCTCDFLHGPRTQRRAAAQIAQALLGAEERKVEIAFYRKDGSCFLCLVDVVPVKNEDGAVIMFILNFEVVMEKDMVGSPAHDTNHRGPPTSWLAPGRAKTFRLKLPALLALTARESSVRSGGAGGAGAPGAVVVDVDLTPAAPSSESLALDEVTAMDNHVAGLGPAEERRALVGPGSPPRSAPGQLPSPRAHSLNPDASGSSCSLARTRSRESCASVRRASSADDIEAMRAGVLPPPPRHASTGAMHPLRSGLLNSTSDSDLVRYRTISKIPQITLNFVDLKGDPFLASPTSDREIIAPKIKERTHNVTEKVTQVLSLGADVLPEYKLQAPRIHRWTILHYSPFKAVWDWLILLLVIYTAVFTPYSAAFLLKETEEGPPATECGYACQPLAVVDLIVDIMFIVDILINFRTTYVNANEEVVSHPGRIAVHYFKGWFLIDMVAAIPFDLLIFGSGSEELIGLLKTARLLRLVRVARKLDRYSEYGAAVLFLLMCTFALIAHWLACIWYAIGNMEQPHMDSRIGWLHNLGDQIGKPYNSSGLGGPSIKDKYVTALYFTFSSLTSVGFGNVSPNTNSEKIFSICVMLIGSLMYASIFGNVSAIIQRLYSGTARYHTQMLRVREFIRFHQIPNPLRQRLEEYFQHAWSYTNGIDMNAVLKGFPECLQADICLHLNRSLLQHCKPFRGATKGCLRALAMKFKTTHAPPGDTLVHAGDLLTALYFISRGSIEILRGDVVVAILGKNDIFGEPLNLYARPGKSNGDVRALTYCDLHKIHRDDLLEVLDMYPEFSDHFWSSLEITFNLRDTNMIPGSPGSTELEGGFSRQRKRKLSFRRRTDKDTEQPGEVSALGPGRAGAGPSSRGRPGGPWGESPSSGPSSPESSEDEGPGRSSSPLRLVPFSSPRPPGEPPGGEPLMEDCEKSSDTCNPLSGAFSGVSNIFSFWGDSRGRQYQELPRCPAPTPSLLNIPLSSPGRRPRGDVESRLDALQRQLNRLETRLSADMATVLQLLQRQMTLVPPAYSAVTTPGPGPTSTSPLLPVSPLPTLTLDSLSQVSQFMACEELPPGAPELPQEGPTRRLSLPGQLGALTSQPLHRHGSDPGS

Work on `O=C1CCC(Nc2cccc(N3CCN(CC4CCN(CC(=O)N5CCC(NC(=O)c6n[nH]cc6NC(=O)c6c(Cl)cccc6Cl)CC5)CC4)CC3)c2)C(=O)N1` (stereo not given) yielded an IC50 [1] of 1.03 nM, an IC50 [2] of 1.01 nM and a DC50 [3] of 1.09 nM. It also gave a remaining at 1 h [4] of 82.8%, a half-life [5] of 2.42 h and a microsomal CLint [6] of 9.4 µL/min/mg. For the same compound, the remaining at 1 h [7] was 76.2%, the half-life [8] was 1.77 h and the microsomal CLint [9] was 11 µL/min/mg. It also gave a Papp A→B at 1 h, 2 µM [10] of 1.81 ×10⁻⁶ cm/s, a Papp B→A at 1 h, 2 µM [11] of 9.47 ×10⁻⁶ cm/s and an efflux ratio at 1 h, 2 µM [12] of 5.2. The solubility kinetic at 2 h [13] was 234 µM (≈ 189 µg/mL), the half-life [14] was 8.2 h and the Cmax [15] was 2600 ng/mL. The AUC(0-t) [16] was 2660 ng·h/mL, the AUC(0-inf) [17] was 2860 ng·h/mL and the half-life [18] was 4.7 h. It also gave a Cmax [19] of 277 ng/mL, an AUC(0-t) [20] of 951 ng·h/mL and an AUC(0-inf) [21] of 971 ng·h/mL. The bioavailability [22] was 6.8%, the half-life [23] was 2.8 h and the Cmax [24] was 2000 ng/mL. For the same compound, the AUC(0-t) at 12 h [25] was 2180 ng·h/mL, the AUC(0-inf) [26] was 2330 ng·h/mL and the half-life [27] was 5.4 h. The Cmax [28] was 179 ng/mL, the AUC(0-t) at 12 h [29] was 714 ng·h/mL and the AUC(0-inf) [30] was 893 ng·h/mL. For the same compound, the bioavailability [31] was 6.5%, the IC50 [32] was 0.53 nM and the IC50 [33] was 0.53 nM. For the same compound, the IC50 [34] was 0.53 nM, the IC50 at 72 h [35] was 126 nM and the IC50 at 72 h [36] was 413 nM. It also gave an IC50 at 72 h [37] of 70 nM, an IC50 at 72 h [38] of 95 nM and an IC50 [39] greater than 30000 nM. For the same compound, the Activity [40] was “Non-toxic”, the Activity [41] was “Non-toxic” and the Activity [42] was “Minimal_effect”. The Activity [43] was “Minimal_effect”, the Activity [44] was “Minimal_effect” and the Activity [45] was “Minimal_effect”. The Activity [46] was “Minimal_effect”, the inhibition in vivo at 12.5 mg/kg [47] was 79.2% and the inhibition in vivo at 25 mg/kg [48] was 84.8%. The Activity [49] was “Non-toxic” and the Activity [50] was “Non-toxic”.
